The values below come from paper PMC8682738, “Constrained peptides mimic a viral suppressor of RNA silencing” (Nucleic Acids Research, 2021).

Positions of bridges follow the written chain, without caps; N, C: chain ends. Non-standard residues stand in square brackets, D forms with d. Residues, ends and D or L forms follow the SMILES beside them. *: point of attachment. FITC = O=C1OC2(c3ccc(O)cc3Oc3cc(O)ccc32)c2ccc(NC(=S)*)cc21; R8 = C=CCCCCCC[C@@](C)(N)C(=O)O; S5 = C=CCCC[C@](C)(N)C(=O)O; AEEA = NCCOCCOCC(=O)O

One assay has as its system ss-RNA miR-21 3´. Put plainly: EMSA with single-stranded RNA. The assay is classed as binding. The conditions noted are these: fluorescein-labeled peptide 3 μM, oligonucleotide 9 μM.
In assay [1] the test system is yeast transfer RNAs (t-RNAs). Put plainly: EMSA with transfer RNA. The class given is binding, baker's yeast. The conditions noted are these: fluorescein-labeled peptide 3 μM, t-RNA 9 μM. Here is the method: Electrophoretic mobility shift assays (EMSAs) were performed using a Bio-Rad Mini-Protean gel system paired with a direct current (DC) power source (PowerPac™ HC, Bio-Rad). Typically, 6 μl solutions containing ds RNA (c = 3 μM) and fluorescein-labeled peptide (c = 6 μM) were incubated in binding buffer (10 mM Tris (pH 8.0), 0.5 mM EDTA, 12.5% glycerol and 150 mM KCl) at 4°C for 1 h. After incubation, bound RNA was resolved from peptide-free RNA using 10% non-denaturing polyacrylamide gels at 120 V in running buffer (25 mM Tris (pH 8.0), 200 mM glycine, 20 mM NaCl) at 4°C for 1 h. Visualization of fluorescent gel-bound species was conducted using a Typhoon Trio + fluorescence scanner (GE Healthcare Life Sciences). For nucleic acid visualization, gels were stained using 2 μl of SYBR™ gold nucleic acid gel dye (Molecular Probes) in 20 ml of TAE buffer (40 mM Tris, 1 mM EDTA, 20 mM acetic acid) for 45 min at RT before being visualized using a FluorChem™ gel documentation system (Alpha Innotech). To assess B3 binding to different ds RNA sequences (Supplementary Figure S20), 6 μl solutions containing hairpin RNA (c = 1 μM) and fluorescein-labeled B3 (c = 2 μM) were incubated in binding buffer (TAE and 10% glycerol) at RT for 1 h, and then resolved using 15% non-denaturing polyacrylamide gels (acrylamide/bis-acrylamide (19:1) in TAE) at 150 V in running buffer (TAE) at 4°C for 1.5 h. […]
Background: A gel shift assay detects complexes by their altered migration in electrophoresis.

The subject of assay [2] is K562 human leukemia cells. Put plainly: Peptide uptake by flow cytometry. The class given is cell-based. To be noted: fluorescein-labeled peptide 1 μM, 90 min. The protocol: 2 × 10^6 K562 cells were plated per well in 48-well plates in presence of fluorescein-labeled peptides (c = 1 μM, 0.5% DMSO) in a total volume of 300 μl. After 90 min, cells were treated with proteinase K (2 μg·ml^−1) for 10 min to remove extracellular peptides. Cells were extensively washed and total uptake of labeled peptide was measured by flow cytometry (Cytoflex, Beckman Coulter with the CytExpert software version 2.3). For each peptide, 20 000 events per sample were collected with >85% viable cells (forward/side scatter) that were considered for analysis using a 525/40 nm filter. DMSO was used as a control to distinguish general DMSO-related and peptide-specific effects. Each experiment was performed in triplicate.

Another assay concerns endogenous miR-21. The assay is described as follows: Pull-down of miR-21 from K562 cells. The assay is classed as cell-based, human. The conditions noted are these: biotinylated peptide 10 μM, streptavidin beads, qRT-PCR, triplicate. The protocol:
2 × 10^6 K562 cells were incubated with N-terminally biotinylated peptides (c(peptide) = 10 μM, t = 2.5 h) for uptake on a rotating wheel at 37°C. The cells were extensively washed in PBS and lysed in lysis buffer (25 mM HEPES, pH 7.5, 150 mM NaCl, 0.05% IGEPAL CA-630, 1 mM EDTA) supplemented with 0.5 U/μl RNAse inhibitor (Superase-in, ThermoFisher). The lysate was cleared by centrifugation at 21 000 g at 4°C, an aliquot of the supernatant was removed and re-suspended in Trizol, while the remaining was incubated with streptavidin-coupled magnetic beads (Dynabeads M280, ThermoFisher) on a rotating wheel (2 h, 4°C). After magnetic separation and washing (3× in lysis buffer), the beads were re-suspended in 20 μl lysis buffer, re-suspended in Trizol (ThermoFisher), and 400 ng t-RNA was added per sample as a carrier. RNA was extracted from Trizol using the standard protocol and the qRT-PCR was performed according to a previously published protocol ([62]) using the primers h-miR21-3p-FW ([…]), h-miR21-3p-RV ([…]), h-miR21-5p-FW ([…]), h-miR21-5p-RV ([…]) in a CFX96 real-time machine (Bio-Rad). The relative enrichment was calculated as a ratio of copies in the immunoprecipitate over input normalized to the enrichment of the control peptide D1.
For orientation: In qPCR the cycle at which signal appears reflects the starting amount.

Assay [3] concerns Dicer processing of pre-miR-21. Put plainly: Dicer cleavage assay of pre-miR-21. The class given is biochemical. To be noted: pre-miR-21 40 nM; for inhibition of pre-miR-21 maturation by Dicer (in words): Dicer 4 U·ml^−1, peptide 10–600 nM. The protocol: Next, RhDicer (0.5 U·μl^−1 solution; Genlantis) was diluted in buffer (20 mM Tris·HCl, pH 6.8, 100 mM NaCl, 1 mM MgCl2, 1 mM DTT, 5 mM β-mercaptoethanol, 10% glycerol, 0.1% Triton-X 100) to a concentration of 40 U·ml^−1 and then added to the peptide/RNA solutions (final RhDicer concentration: 4 U·ml^−1). The reaction solution was incubated for 150 min at 37°C, then denatured for 5 min at 70°C, and stored at 4°C. Subsequently, a 1:10 dilution in H2O of the reaction solution was performed and added to a Poly(A) Tailing and reverse transcription solution as previously reported ([62]). The samples were incubated at 42°C for 1 h before subsequent inactivation for 5 min at 95°C and cooling to 4°C. Next, qRT-PCR of each sample was performed using the primers miR21–5p–RV1 ([…]), miR21-5p-FW1 ([…]), and miRNA-RT1 ([…]) in a StepOnePlus™ real-time PCR system (Thermo Fisher Scientific). Briefly, 1 μl of template DNA solution was added to a solution of Luna® Universal Probe qPCR Master Mix (New England Biolabs) with a final primer concentration of 125 nM in 20 μl per sample. Samples were initially denatured for 5 min at 95°C followed by 45 temperature cycles of 15 s at 95°C and 30 s at 66°C. The quantification was done using miR-21-5p standard curves. To visualize the inhibitory potential of each peptide the normalized abundance of mature miR-21 (%) is plotted against the peptide concentration (nM).

For `CC(C)C[C@@H]1NC(=O)[C@@](C)(NC(=O)[C@H](CO)NC(=O)[C@H](CCCNC(=N)N)NC(=O)[C@H](CCCNC(=N)N)NC(=O)[C@H](CCC(N)=O)NC(=O)[C@H](CCC(=O)O)NC(=O)[C@H](CO)NC(=O)[C@@H]2CCCN2C(=O)[C@H](CO)NC(=O)[C@H](CCCCN)NC(=O)[C@H](Cc2c[nH]cn2)NC(=O)CNC(=O)[C@H](CCCNC(=N)N)NC(=O)[C@H](CCC(=O)O)NC(=O)[C@H](CCCCN)NC(=O)[C@H](CCCNC(=N)N)NC(=O)[C@H](CC(N)=O)NC(=O)[C@]2(C)CCCC=CCCCCCC[C@@](C)(NC(=O)[C@H](CCC(N)=O)NC(=O)[C@H](CCCCN)NC(=O)[C@H](CCCCN)NC(=O)COCCOCCNC(=S)Nc3ccc4c(c3)C(=O)OC43c4ccc(O)cc4Oc4cc(O)ccc43)C(=O)N[C@@H](CCC(N)=O)C(=O)N[C@@H](CCCNC(=N)N)C(=O)N[C@@H](CCCCN)C(=O)N[C@@H](CCCNC(=N)N)C(=O)N[C@@H](Cc3c[nH]cn3)C(=O)N[C@@H](CCCCN)C(=O)N2)CCCC=CCCC[C@@](C)(C(=O)N[C@@H](CCCNC(=N)N)C(N)=O)NC(=O)[C@H](Cc2c[nH]cn2)NC(=O)[C@H](Cc2c[nH]c3ccccc23)NC1=O` [C1] ({FITC-AEEA}-KKQ[R8]QRKRHK[S5]NRKERGHKSPSEQRRS[S5]LWH[S5]R-NH2; staple 4-11, 28-32), the “binding to single-stranded RNA in EMSA” value in the assay on ss-RNA miR-21 3´ is given as “did not bind”. In assay [1], the “binding to yeast t-RNA mixture in EMSA” value is “did not observe binding”. For the same compound, the “fold increase in uptake relative to wt33” value in assay [2] is on record as 264 fold. In addition, the “enrichment of miR-21 relative to control peptide D1” value in the assay with endogenous miR-21 was “enrichment”.

As to `CC(C)C[C@H](NC(=O)[C@]1(C)CCCC=CCCC[C@](C)(NC(=O)[C@H](CCC(=O)O)NC(=O)[C@H](CO)NC(=O)[C@@H]2CCCN2C(=O)[C@H](CO)NC(=O)[C@H](CCCCN)NC(=O)[C@H](Cc2c[nH]cn2)NC(=O)CNC(=O)[C@H](CCCNC(=N)N)NC(=O)[C@]2(C)CCCC=CCCC[C@](C)(NC(=O)[C@H](CCCCN)NC(=O)[C@H](Cc3c[nH]cn3)NC(=O)[C@H](CCCNC(=N)N)NC(=O)[C@H](CCCCN)NC(=O)[C@H](CCCNC(=N)N)NC(=O)[C@H](CCC(N)=O)NC(=O)[C@H](C)NC(=O)[C@H](CCC(N)=O)NC(=O)[C@H](CCCCN)NC(=O)[C@H](CCCCN)NC(=O)COCCOCCNC(=S)Nc3ccc4c(c3)C(=O)OC43c4ccc(O)cc4Oc4cc(O)ccc43)C(=O)N[C@@H](CC(N)=O)C(=O)N[C@@H](CCCNC(=N)N)C(=O)N[C@@H](CCCCN)C(=O)N2)C(=O)N[C@@H](CCCNC(=N)N)C(=O)N[C@@H](CCCNC(=N)N)C(=O)N[C@@H](CO)C(=O)N1)C(=O)N[C@@H](Cc1c[nH]c2ccccc12)C(=O)N[C@@H](Cc1c[nH]cn1)C(=O)N[C@@H](C)C(=O)N[C@@H](CCCNC(=N)N)C(N)=O` [B3] ({FITC-AEEA}-KKQAQRKRHK[S5]NRK[S5]RGHKSPSE[S5]RRS[S5]LWHAR-NH2; staple 11-15, 24-28), the “binding to single-stranded RNA in EMSA” value with ss-RNA miR-21 3´ is “did not bind”. For the same compound, the “binding to yeast t-RNA mixture in EMSA” value in assay [1] is “did not observe binding”. For the same compound, the “enrichment of miR-21 relative to control peptide D1” value with endogenous miR-21 was 35 fold. Besides, the “inhibition of pre-miR-21 maturation by Dicer (in words)” value in assay [3] is listed as “inhibited in a concentration-dependent manner”. For the same compound, in assay [3] (recombinant Dicer 4 U·ml^−1, 150 min, 37°C, N-terminally acetylated peptide, qRT-PCR of miR-21, triplicate, read-out: Half-maximal Dicer inhibition), the IC50 is around 50 nM.

In the case of `CC(C)C[C@@H]1NC(=O)[C@H](CCC(=O)O)NC(=O)[C@H](CO)NC(=O)[C@@](C)(NC(=O)[C@H](CCCNC(=N)N)NC(=O)[C@H](CCC(N)=O)NC(=O)[C@H](CCC(=O)O)NC(=O)[C@H](CO)NC(=O)[C@@H]2CCCN2C(=O)[C@H](CO)NC(=O)[C@H](CCCCN)NC(=O)[C@H](Cc2c[nH]cn2)NC(=O)[C@]2(C)CCCC=CCCCCCC[C@@](C)(NC(=O)[C@H](Cc3c[nH]cn3)NC(=O)[C@H](CCCNC(=N)N)NC(=O)[C@H](CCCCN)NC(=O)[C@H](CCCNC(=N)N)NC(=O)[C@H](CCC(N)=O)NC(=O)[C@H](C)NC(=O)[C@H](CCC(N)=O)NC(=O)[C@H](CCCCN)NC(=O)[C@H](CCCCN)NC(=O)COCCOCCNC(=S)Nc3ccc4c(c3)C(=O)OC43c4ccc(O)cc4Oc4cc(O)ccc43)C(=O)N[C@@H](CC(C)C)C(=O)N[C@@H](CC(N)=O)C(=O)N[C@@H](CCCNC(=N)N)C(=O)N[C@@H](CCCCN)C(=O)N[C@@H](CCC(=O)O)C(=O)N[C@@H](CCCNC(=N)N)C(=O)N2)CCCC=CCCC[C@@](C)(C(=O)N[C@@H](Cc2c[nH]cn2)C(=O)N[C@@H](C)C(=O)N[C@@H](CCCNC(=N)N)C(N)=O)NC1=O` [D1] ({FITC-AEEA}-KKQAQRKRH[R8]LNRKER[S5]HKSPSEQR[S5]SEL[S5]HAR-NH2; staple 10-17, 26-30), the “cellular uptake (in words)” value in assay [2] is “considerably enhanced cellular uptake”. The “inhibition of pre-miR-21 maturation by Dicer (in words)” value in assay [3] is “showed only small effects”.
